Experimental data reported in publication PMC10570359, “Dietary supplementation of cystinotic mice by lysine inhibits the megalin pathway and decreases kidney cystine content” (Scientific Reports, 2023).

Assays:
[1] = test system: kidney proximal tubular cells; assay: In vivo endocytic tracing with TexasRed-ovalbumin in WT mice; details: 3 weeks diet
Description: We also examined whether apical endocytic trafficking of megalin cargo could be blocked under 5x-L-lysine, using apical endocytic tracing in WT mice with the fluorescent megalin ligand, TexasRed-ovalbumin (TxR-OVA). Normally, mice feed at night hours. To optimize PT exposure to ingested lysine during endocytic tracing performed at day hours, mice were first reprogrammed by adaptation to inverted […]. […] This implied that the extent of competition in cortical PTCs could be greatly underestimated by measured LMWPuria. At higher magnification, contacts of TxR-OVA labeled apical endosomes with lysosomes in cortical PTCs were still visible under 5X-L-Lysine, arguing against a major impairment of apical endosomal trafficking (Fig. 4b). […]
(§1) For in vivo endocytic tracing in PTCs, Texas Red-ovalbumin (300 µg, Invitrogen #O23021) was injected intravenously at 20 min before sacrifice. […] Proliferative events in kidney cortex were quantified as described. […] Histological PAS staining and quantification of the frequency of swan-neck lesions were performed as described. Sirius Red staining of paraffine sections and morphometry in total sagittal kidney sections after conversion to red fluorescence were performed as described[53],[54].

Ctns KO mice kidneys = assay: Kidney histology (swan-neck lesions, Sirius-red fibrosis) in Ctns KO mice; type: in vivo; details: primary prevention, diet from 2-to-6 months-of-age, control diet ~ 80%
Excerpt: By histological survey, no obvious change was evidenced after HE or PAS staining (Supplemental Fig. 4a). We thus scored the abundance of characteristic swan-neck lesions at the glomerulo-tubular junction, a quantitative marker disease, and again found no detectable protection (Supplemental Fig. 4b). However, at 6-months-of-age as baseline, most junctions were already altered (~ 80%), leaving little scope for a potential benefit. […] To look for fibrosis, histological sections at 8 months-of-age were stained with Sirius-red; its signal was automatically divided into three intensity levels over the entire kidney cortex. This quantification disclosed no detectable decrease of Sirius-red staining, thus fibrosis, upon dAAs at this interval (Supplemental Fig. 4c,d).
as §1, with “described[53],[54]. […]” for “described[53],[54].”
Fo r the significance of swan-necks, please see [26]. Fo r more information on swan-neck quantification, see [22]. […]

[2] = test system: kidney tubular reabsorption of LMWPs; parameters: method as in PMID 98829; details: humans, intravenous injection; cited from earlier work

NCCCC[C@H](N)C(=O)O [5x-L-lysine, L-lysine]
distribution of endocytic load from S1/S2 (cortex) to S3 segment (outer medulla) ([1]; inverted light cycle): strong redistribution | TxR-OVA fluorescence intensity in cortical PTCs ([1]; inverted light cycle (reprogrammed feeding hours), 20 min after injection): greatly decreased | swan-neck frequency at 6 months-of-age (Ctns KO mice kidneys): ~ 20% | impact on glomerular filtration [2]: no impact | inhibition of kidney tubular reabsorption of LMWPs [2]: dose-dependent (up to complete) inhibition
